How the values were obtained:
HeLa cells [1] = assay: Cellular ROS assay (ROS deep red fluorescence kit); type: cell-based; conditions: pretreatment 50, 100, 150 μM for 24 h; 5 mM H2O2 30 min
Description: ROS is the main contributor to cell death. These reactive molecules are formed by several mechanisms and can be detected by various techniques. In order to investigate the level of cellular ROS after treatment with compounds, the accumulation of intracellular ROS in cells was quantified with a cellular ROS assay kit (ab186029, Abcam, Boston, USA) fluorescence assay. After pretreatment with 2f, 2j, and 3i at 50, 100, and 150 μM for 24 h, cell stress was induced with 5 mM hydrogen peroxide for 30 min. The cells in each well were collected and resuspended with a serum-free medium containing the ROS red probe. Subsequently, cells were incubated at 37 °C for 30 min in the dark, and fluorescence was read at Ex/Em = 650/675 nm.
In this study, Hela cells were seeded overnight at 20,000 cells/90 µL/well in a black wall/clear bottom 96-well plate. Cells included those untreated (control) and those pre-treated with compounds at various concentrations (50, 100, 150 μM) for 24 h. The ROS deep red assay solution (100 μL/well) was added and incubated at 5% CO2, 37 °C incubator for 30 min. The fluorescence signal was monitored at Ex/Em = 650/675 nm (cut off = 665 nm) with bottom read mode within 30 min (cellular ROS assay kit, ab186029, abcam).

HeLa cells [2] = assay: Apoptosis, Annexin V & Dead Cell flow cytometry; type: cell-based; conditions: IC50 concentration, 24 h
Description: Examining apoptosis induction by some samples was confirmed by the determination of annexin V (p ≤ 0.05) using the IC50 for 2b, 2e, 2f, 2j, and quercetin in the HeLa cell line (Figure 5a).
HeLa cells were seeded overnight at 1 × 10^5 cells/1.5 mL/well in a 6-well plate. […] The cells were […] and washed with PBS. The collected cells were diluted with serum-free medium to a suitable volume. The 100 μL of cell suspension was added to 100 μL of Muse^TM Annexin V & Dead Cell reagent and incubated for 20 min at room temperature. Cells were analyzed by flow cytometry (Guava Muse Cell Analyzer, Luminex, Austin, TX USA) with Guava suite software 3.4.

Compound | Cellular ROS fluorescence intensity vs H2O2-treated cells (HeLa cells [1]) | Apoptosis induction (HeLa cells [2]) | Change in dead phase compared to the control (HeLa cells [2]) | Change in early apoptosis phase compared to the control (HeLa cells [2]) | Change in late apoptosis phase compared to the control (HeLa cells [2]) | Change in live phase compared to the control (HeLa cells [2]) [%]
O=C(c1ccccc1)c1c(-c2ccccc2)oc2c(O)c(O)ccc2c1=O [2f, 3-Benzoyl-7,8-dihydroxy-2-phenyl-4H-chromen-4-one] | significantly reduced | induced apoptosis in tumor cells | +5.8% | +6.3% | +1.2% | −12.1
O=C(Oc1ccc2c(=O)c(C(=O)c3ccccc3)c(-c3ccccc3)oc2c1O)c1ccccc1 [2j, 3-Benzoyl-8-hydroxy-4-oxo-2-phenyl-4H-chromen-7-yl benzoate] | significantly reduced |  |  |  |  | 

Reference: PMC10096453, “One-Pot Synthesis and Evaluation of Antioxidative Stress and Anticancer Properties of an Active Chromone Derivative” (Molecules, 2023)
